Laboratory results as given in patent publication US20230122540A1, “SYSTEMS AND METHODS TO TRACK THE EVOLUTION OF SINGLE CELLS” (Genentech, Inc., priority 2020, published 2023).
Entries after “also recorded” stand apart in the source; their conditions may differ. Read-outs that look alike come from different tables or passages of the source.

Experiments:
[1] = target: T1, EGFR (Homo sapiens, UniProt P00533, DEL746-750); assay: Western blot of EGFR and pEGFR in HCC827 cells; assay type: cell-based; settings: for EGFR degradation: HCC827 cells
T1 construct: does-dependent EGFR degradation induced by GNE-104 in HCC827 cells; endogenous in cells; host or cells: HCC827
Method: Immunoblotting: Immunoblotting performed using standard methods. Cells were briefly washed in ice-cold PBS and lysed in the following lysis buffer (1% NP40, 50 mM Tris, pH 7.8, 150 mM NaCl, 5 mM EDTA) plus protease inhibitor mixture (Complete mini tablets, Roche Applied Science, 11836170001) and phosphatase inhibitor mix (Thermo Fisher Scientific, 78420). Lysates centrifuged at 15,000 rpm for 10 minutes at 4° C. and the protein concentration determined by BCA (Thermo Fisher Scientific, 23227). Equal amounts of protein were resolved by SDS-PAGE on NuPAGE, 4-12% Bis-Tris Gels (Thermo Fisher Scientific, WG-1403) and transferred to nitrocellulose membrane (Bio-Rad, 170-4159). Membranes were blocked in blocking buffer (Li-Cor, 927-40000), incubated overnight with the indicated primary antibodies and analyzed by the addition of secondary antibodies IRDye 680LT Goat anti-Mouse IgG (Li-Cor, 926-68050) or IRDye 800CW Goat anti-Rabbit IgG (Li-Cor, 926-32211). The membranes were visualized on a Li-Cor Odyssey CLx Scanner. Anti-EGFR (MI-12-1) purchased from Medical and Biological Labs, anti-pEGFR (3777), anti β-Tubulin (2146) and anti-β-Actin (4970) purchased from Cell Signaling Technology. IR-conjugated secondary antibodies Goat anti-Mouse 680LT (926-68020), and Goat anti-Rabbit 800CW (926-32211) purchased from Li-Cor.

[2] = tested on: common EGFR mutant variants; assay: in vitro kinase inhibition assay; assay type: biochemical; settings: panel of 218 kinases
[3] = tested on: PC9 cells; assay: Anti-growth effects in PC9 cells (clonogenic assay, cell counting, Incucyte imaging); assay type: cell-based, human; settings: 1 μM
Method: Compound dose matching: […] Clonogenic assay: Cells were seeded at desired densities in two to three replicates in 6-well plates and allowed to attach overnight. The following day cells were treated with the indicated compounds. Media containing the appropriate compounds was replenished every 48-72 hours. At the end of the assay, the cells were washed once with PBS, fixed and stained with crystal violet solution (Sigma Aldrich, HT90132) for 20 minutes, washed with water, and allowed to dry before scanning. […] For experiments shown in FIG. 27B, cells were treated with either DMSO or 1 μM ISRIB (Tocris Cat. No. 5284) for 24 h, and then co-treated with EGFR inhibitors for 8 days.

[4] = tested on: PC9 cells; assay: TraCe-seq experiment (barcoded PC9 cells, scRNA-seq on day four); assay type: cell-based, human; settings: for cell cycle arrest (GO): fraction of cells in GO state inferred by gene expression, day four
Method: To conduct the TraCe-seq experiment, 600 PC9 cells carrying unique barcodes were randomly selected and these cells were expanded for ˜12 doublings to establish the starting population. Single cell transcriptional profiling on a fraction of this population at ˜30× coverage of the barcodes was performed to record the baseline transcriptional programs and relative clonal abundance. 200K of these cells were seeded and were treated with either erlotinib, GNE-104, or GNE-069. Cells were harvested on day four and profiled by 10×scRNA-seq to determine the relative fitness of each clone and capture treatment-induced transcriptional changes (FIG. 17D).
TraCe-Seq barcode assignment: TraCe-Seq barcode recovery from scRNA-Seq FASTQs was performed using Salmon (v. 0.1.1). Briefly, custom augmented Salmon index was created using human reference GRCh38 and transgene GFP fused to one of 100,000 30-nt GC-optimized barcode in library. Transcript expression of demultiplexed per-cell FASTQs were then quantified using custom Salmon index. Cells with single GFP-barcode expression were assigned to corresponding TraCe-Seq barcode. Cells with multiple TraCe-Seq barcodes expressed were assigned to a single TraCe-Seq barcode if expression one TraCe-Seq was 3-fold higher than other detected TraCe-Seq barcodes.

[5] = tested on: PC9 cells; assay: Initial response of PC9 cells to Erlotinib (viability, phase contrast imaging); assay type: cell-based, human; settings: within five days, compared to the DMSO control
Method: Six hundred PC9 cells containing unique barcodes were expanded separately for 12 days. The clones were then pooled into groups of cells with replicate barcodes and subjected to a first scRNA-seq on Day 1. Subsequently, the groups of cells were treated with either DMSO (vehicle control) or Erlotinib. On Day 5 of the treatment, a second scRNA-seq was performed to evaluate an initial response of the cells to the treatments.

[6] = tested on: ATF4, CHOP, GADD34; assay: qRT-PCR of pro-death genes downstream of ER stress; assay type: cell-based, human; settings: for expression of key pro-death ISR genes downstream of ER stress (ATF4, CHOP, GADD34): PC9, HCC4006 and NCI-H1975 cells; for induction of pro-death ER stress genes: PC9 cells, with GNE-104, very low non-toxic concentrations
Method: RNA extraction and qRT-PCR: RNA was extracted using Qiagen RNeasy Plus kit following manufacturer's instruction. RNA was reverse transcribed using High-Capacity cDNA Reverse Transcription Kit (Thermo Fisher Scientific Cat. No. 4368814). qPCRs were performed using TaqMan™ Fast Advanced Master Mix (Thermo Fisher Scientific Cat. No. 4444557) on ABI QuantStudio 7 Flex Real-Time PCR Systems. HPRT1 was used as the internal control to quantify relative gene expression levels. Taqman probes were obtained from Thermo Fisher Scientific (Cat. No. 431182, 4448490). These probes were used in the study: ATF4 Hs00909569_g1, DDIT3/CHOP Hs00358796_g1, PPP1R15A/GADD34 Hs00169585_m1, SLC7A5 Hs01001183_m1, ETV4 Hs00385910_m1, SPRY4 Hs00540086_m1, DUSP6 Hs04329643_s1, HPRT1 Hs02800695_m1.

[7] = tested on: PC9 cells; assay: scRNA-seq gene expression in barcoded PC9 cells (Example 3); assay type: cell-based, human; settings: for ISR pathway / ATF4 and SLC7A5 expression: Day 5 of treatment; for canonical MAPK target gene expression: day 5 of treatment
Source text: The above-described workflow was used to evaluate adaptation of mutated EGFR lung cancer cells to treatment strategies including EGFR kinase inhibition (Erlotinib) and EGFR protein degradation (Degrader G-104 or Degrader) using the PC9 (non-small cell lung carcinoma) cell line model. Six hundred PC9 cells containing unique barcodes were expanded separately for 12 days. The clones were then pooled into groups of cells with replicate barcodes and subjected to a first scRNA-seq on Day 1. Subsequently, the groups of cells were treated with either DMSO (vehicle control), Erlotinib, or Degrader. On Day 5 of the treatment, a second scRNA-seq was performed to evaluate an initial response of the cells to the treatments. Treatment with Erlotinib or Degrader was continued for approximately two more months. At the endpoint of the treatment, a final scRNA-seq was performed on the surviving cells. scRNA-seq data was analyzed with Next Generation Sequencing technologies, and barcode quantities were determined for both treatments, as illustrated in FIGS. 4A-4B.
Single cell RNA-seq data was further analyzed to evaluate how Degrader resistant clones respond differently to Erlotinib versus Degrader. […] Compared to Degrader, Erlotinib activated genes involved in ER protein processing pathways.
Thus, PC9 cells were treated with either siNTC+Erlotinib, siEGFR+Erlotinib, or siEGFR+DMSO, then analyzed for ISR and MAPK genes after 72 hrs (via scRNA-seq), and assessed for cell viability at Day 6. […] Results shown in FIG. 11D illustrate decreased efficacy of Erlotinib when combined with siEGFR, as indicated by greater numbers of viable cells in the Erlotinib+siEGFR treatment group compared to treatment by only Erlotinib.

[8] = tested on: EGFR-mutant lung cancer cell lines; assay: Clonogenic and CellTiter-Glo assay in EGFR-mutant lung cancer cell lines; assay type: cell-based, human; settings: multiple EGFR-mutant lung cancer cell lines, vs erlotinib or GNE-069
Method: Clonogenic assay: Cells were seeded at desired densities in two to three replicates in 6-well plates and allowed to attach overnight. The following day cells were treated with the indicated compounds. Media containing the appropriate compounds was replenished every 48-72 hours. At the end of the assay, the cells were washed once with PBS, fixed and stained with crystal violet solution (Sigma Aldrich, HT90132) for 20 minutes, washed with water, and allowed to dry before scanning. For experiments shown in FIG. 18E erlotinib concentration were determined to match the cell viability effect to 1 μM GNE-069 in each cell line, so that 1 μM erlotinib was applied to PC-9 and HCC2935, and 100 nM erlotinib was applied to HCC4006 and HCC827. […]
Cell viability and cell death quantification: For experiments shown in FIGS. 24C, 27D, the indicated cells were seeded at desired densities in replicates in 24-well plates and allowed to attach overnight. […] At each media change, cell viabilities were quantified using CellTiter-Glo Luminescent Cell Viability Assay (Promega, G7572). […] Induction of cell death was quantified 24 h post-treatment using Caspase-Glo 3/7 Assay System (Promega, G8093) and cell survival were measured 72 h post-treatment using CellTiter-Glo Luminescent Cell Viability Assay (Promega, G7572). […]

[9] = tested on: H1975 cells; assay: Crystal violet viability of H1975 cells, Osimertinib plus Degrader (Example 3); assay type: cell-based, human; settings: 100 nM Osimertinib 4 hours, then + 1 uM Degrader 24 hours
Method: H1975 cells were treated first for 4 hours with 100 nM of the kinase inhibitor Osimertinib, then subjected to co-treatment with 100 nM Osimertinib+1 uM of Degrader for 24 hours.

[10] = tested on: PC9 and H1975 cells; assay: Clonogenic / CellTiter-Glo assay with pharmacological ER stress modulators; assay type: cell-based
Method: Clonogenic assay: Cells were seeded at desired densities in two to three replicates in 6-well plates and allowed to attach overnight. The following day cells were treated with the indicated compounds. Media containing the appropriate compounds was replenished every 48-72 hours. At the end of the assay, the cells were washed once with PBS, fixed and stained with crystal violet solution (Sigma Aldrich, HT90132) for 20 minutes, washed with water, and allowed to dry before scanning. For experiments shown in FIG. 18E erlotinib concentration were determined to match the cell viability effect to 1 μM GNE-069 in each cell line, so that 1 μM erlotinib was applied to PC-9 and HCC2935, and 100 nM erlotinib was applied to HCC4006 and HCC827. For experiments shown in FIG. 27B, cells were treated with either DMSO or 1 μM ISRIB (Tocris Cat. No. 5284) for 24 h, and then co-treated with EGFR inhibitors for 8 days. For other experiments cells were treated with 1 μM GNE-104 for 24 h, and then co-treated with 0.5 μg/ml Tunicamycin (Sigma Aldrich, T7765), or 1 nM Thapsigargin (Sigma Aldrich, T9033) for three days.
Cell viability and cell death quantification: For experiments shown in FIGS. 24C, 27D, the indicated cells were seeded at desired densities in replicates in 24-well plates and allowed to attach overnight. The following day cells were treated with the indicated compounds. Media containing the appropriate compounds was replenished every 48 hours. At each media change, cell viabilities were quantified using CellTiter-Glo Luminescent Cell Viability Assay (Promega, G7572). For experiments shown in FIG. 191 and FIG. 29D, PC9 cells were seeded in replicates in 96-well plates and allowed to attach overnight. The following day cells were treated with the indicated compounds or compound combinations at the indicated concentrations. Induction of cell death was quantified 24 h post-treatment using Caspase-Glo 3/7 Assay System (Promega, G8093) and cell survival were measured 72 h post-treatment using CellTiter-Glo Luminescent Cell Viability Assay (Promega, G7572). […]

[11] = Crystal violet % Survival with ISR modulators (Example 3); assay type: cell-based
Method: Tunicamycin and Thapsigargin were used as inducers of ER stress, and Integrated Stress Response Inhibitor (ISRIB) was used to inhibit ISR activation. Cells were treated with Degrader, Degrader+Tunicamycin, or Degrader+Thapsigargin to assess the effect of ER stress on Degrader efficacy. In another experimental group, cells were treated either with Degrader, Erlotinib, or Erlotinib and ISRIB.

In the case of `C#Cc1cccc(Nc2ncnc3cc(OCCOC)c(OCCOCC#CC#CCOCC(=O)N[C@H](C(=O)N4C[C@@H](O)CC4C(=O)NCc4ccc(-c5scnc5C)cc4)C(C)(C)C)cc23)c1` (stereo in doubt) [GNE-069, (2R,4S)-1-((S)-2-(2-((6-(2-((4-((3-Ethynylphenyl)amino)-7-(2-methoxyethoxy)quinazolin-6-yl)oxy)ethoxy)hexa-2,4-diyn-1-yl)oxy)acetamido)-3,3-dimethylbutanoyl)-4-hydroxy-N-(4-(4-methylthiazol-5-yl)benzyl)pyrrolidine-2-carboxamide], the EGFR degradation [1] is reported as “fails to engage VHL (due the specific stereochemistry in the VHL-binding moiety) and degrade EGFR”, the “potency and selectivity profile in in vitro kinase inhibition assays” value [2] is reported as “comparable potency and selectivity profile as GNE-104” and the “anti-growth effects (inhibiting cell growth)” value [3] is reported as “comparable activity by all three measures”. For the same molecule, the “cell cycle arrest (GO)” value [4] was “far greater cell cycle arrest (GO) than GNE-104”.
For `C#Cc1cccc(Nc2ncnc3cc(OCCOC)c(OCCOC)cc23)c1` [Erlotinib], the reduction in viability [5] was “greater than 98%”, the “anti-growth effects (inhibiting cell growth)” value [3] was “comparable activity by all three measures” and the “cell cycle arrest (GO)” value [4] was “far greater cell cycle arrest (GO) than GNE-104”. For the same molecule, the “expression of key pro-death ISR genes downstream of ER stress (ATF4, CHOP, GADD34)” value [6] was “significantly induced expression of key pro-death ISR genes”, the “ISR pathway / ATF4 and SLC7A5 expression” value [7] was “additionally upregulated on Day 5 of Erlotinib treatment” and the “canonical MAPK target gene expression” value [7] was “strongly suppressed canonical MAPK target genes”.
For `C#Cc1cccc(Nc2ncnc3cc(OCCOC)c(OCCOCC#CC#CCOCC(=O)N[C@H](C(=O)N4C[C@H](O)C[C@@H]4C(=O)NCc4ccc(-c5scnc5C)cc4)C(C)(C)C)cc23)c1` [GNE-104, (2R,4R)-1-((S)-2-(2-((6-(2-((4-((3-Ethynylphenyl)amino)-7-(2-methoxyethoxy)quinazolin-6-yl)oxy)ethoxy)hexa-2,4-diyn-1-yl)oxy)acetamido)-3,3-dimethylbutanoyl)-4-hydroxy-N-(4-(4-methylthiazol-5-yl)benzyl)pyrrolidine-2-carboxamide], the phospho-EGFR levels [1] was “potently suppressed phospho-EGFR levels”, the EGFR degradation [1] was “significant dose-dependent degradation of EGFR” and the “anti-growth effects (inhibiting cell growth)” value [3] was “far less efficient in inhibiting cell growth compared to erlotinib and GNE-069; also recorded: less efficacious”. For the same molecule, the “reduction of absolute number and diversity of TraCe-seq barcodes” value ([4]; day four of treatment) was “less effective in reducing both the absolute number and the diversity of TraCe-seq barcodes”, the anti-growth effect [8] was “reduced anti-growth effect” and the “effect on kinase inhibitor activity” value [9] was “attenuated kinase inhibitor activity”. For the same molecule, the “ISR pathway / ATF4 and SLC7A5 expression” value [7] was “does not activate the ISR pathway” and the “canonical MAPK target gene expression” value [7] was “strongly suppressed canonical MAPK target genes”.
For `O=C(COc1ccc(Cl)cc1)NC1CCC(NC(=O)COc2ccc(Cl)cc2)CC1` (centres unmarked) [ISRIB], the “activation of ATF4, CHOP, GADD34 induced by EGFR kinase inhibitors” value ([6]; ISRIB for 24 hours before adding EGFR kinase inhibitor) was “blunted activation of ATF4, CHOP, and GADD34”, the “cell killing by EGFR kinase inhibitors” value ([10]; ISRIB pre-treatment, PC9 and H1975 cells) was “decreased cell killing in both PC9 and H1975 cells” and the “efficacy of Erlotinib on addition of ISRIB (cell viability)” value [11] was “loss of efficacy of Erlotinib”.
With `C=CC(=O)Nc1cc(Nc2nccc(-c3cn(C)c4ccccc34)n2)c(OC)cc1N(C)CCN(C)C` [osimertinib] the “expression of key pro-death ISR genes downstream of ER stress (ATF4, CHOP, GADD34)” value [6] was “significantly induced expression of key pro-death ISR genes”.
For `C/C=C(/C)C(=O)O[C@H]1C(C)=C2[C@H]([C@@H]1OC(=O)CCCCCCC)[C@@](C)(OC(C)=O)C[C@H](OC(=O)CCC)[C@@]1(O)[C@H]2OC(=O)[C@@]1(C)O` [thapsigargin], the “induction of pro-death ER stress genes” value [6] was “greatly induced pro-death ER stress genes” and the “cytotoxic activity of GNE-104 on co-treatment” value [10] was “enhanced the cytotoxic activity of the degrader GNE-104”.
With tunicamycin the “induction of pro-death ER stress genes” value [6] was “greatly induced pro-death ER stress genes” and the “cytotoxic activity of GNE-104 on co-treatment” value ([10]; PC9 cells, very low non-toxic concentrations of ER stress inducer) was “enhanced the cytotoxic activity of the degrader GNE-104”.
